Data reported in patent US20230172961A1 (priority 2020, published 2023).
“Also recorded” adds a separate entry of the source. Read-outs that look alike come from different tables or passages of the source.

Experiments:
[1] = target: SARS-CoV RdRp (nsp12, nsp7 and nsp8) (Severe acute respiratory syndrome coronavirus, UniProt P0C6X7); assay type: biochemical
[2] = target: T1, SARS-CoV-2 RdRp (nsp12, nsp7 and nsp8) (Severe acute respiratory syndrome coronavirus 2, UniProt P0DTD1); assay type: biochemical
[3] = tested on: RdRp of SARS-CoV and/or SARS-CoV-2; assay type: biochemical
[4] = target: SARS-CoV-2 exonuclease complex (nsp14/nsp10) (Severe acute respiratory syndrome coronavirus 2, UniProt P0DTD1); assay: Inhibition of SARS-CoV-2 exonuclease, MALDI-TOF MS; assay type: biochemical
[5] = target: T1, SARS-CoV-2 RdRp (nsp12, nsp7 and nsp8); settings: kinetic studies of Gordon et al 2020a, b; RDV-TP with MERS-CoV and SARS-CoV-2 RdRps; cited from earlier work
Therminator II = Therminator II (Thermococcus sp., UniProt Q56366, A485L/D141A/E143A/Y409V); settings: 10 µM nucleotide, DNA template and primer, MALDI-TOF MS
Therminator IX = settings: 10 µM nucleotide, DNA template and primer, MALDI-TOF MS
Thermo Sequenase = assay: DNA polymerase extension reaction, MALDI-TOF MS, high fidelity polymerase; settings: 10 µM nucleotide, DNA template and primer
[6] = 10 µM inhibitor, 30 nM nsp14/nsp10, 37° C., 15 min
[7] = 150 µM inhibitor, 30 nM nsp14/nsp10, 37° C., 15 min
[8] = 30 µM inhibitor, 30 nM nsp14/nsp10, 37° C., 15 min
[9] = 100 µM inhibitor, 30 nM nsp14/nsp10, 37° C., 15 min
[10] = 300 µM inhibitor, 30 nM nsp14/nsp10, 37° C., 15 min

Chain of Therminator II (Q56366 whole entry D141A/E143A/Y409V/A485L): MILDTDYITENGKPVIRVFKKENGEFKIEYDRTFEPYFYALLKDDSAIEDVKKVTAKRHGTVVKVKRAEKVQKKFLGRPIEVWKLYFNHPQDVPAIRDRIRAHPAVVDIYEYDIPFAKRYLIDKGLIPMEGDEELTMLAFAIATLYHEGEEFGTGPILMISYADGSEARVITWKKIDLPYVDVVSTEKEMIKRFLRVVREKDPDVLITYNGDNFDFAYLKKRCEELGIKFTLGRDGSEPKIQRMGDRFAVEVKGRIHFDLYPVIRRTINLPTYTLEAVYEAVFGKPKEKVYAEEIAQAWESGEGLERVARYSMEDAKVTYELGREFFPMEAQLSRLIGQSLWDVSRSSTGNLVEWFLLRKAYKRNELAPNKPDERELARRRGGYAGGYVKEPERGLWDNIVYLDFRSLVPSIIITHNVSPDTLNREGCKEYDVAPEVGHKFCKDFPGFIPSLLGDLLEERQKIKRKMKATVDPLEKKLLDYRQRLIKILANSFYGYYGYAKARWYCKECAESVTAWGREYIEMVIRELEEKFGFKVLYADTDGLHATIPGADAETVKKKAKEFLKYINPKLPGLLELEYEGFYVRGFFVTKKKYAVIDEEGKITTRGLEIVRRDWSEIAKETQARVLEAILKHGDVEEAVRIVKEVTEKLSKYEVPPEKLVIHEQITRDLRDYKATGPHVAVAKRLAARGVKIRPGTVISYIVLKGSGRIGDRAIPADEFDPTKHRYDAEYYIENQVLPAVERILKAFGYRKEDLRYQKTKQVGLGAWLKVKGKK

Cc1cn([C@H]2C[C@H](N=[N+]=[N-])[C@@H](COP(=O)(O)OP(=O)(O)OP(=O)(O)O)O2)c(=O)[nH]c1=O [3′-N3-dTTP, 3′-N3-3′-deoxythymidine triphosphate]
termination of the polymerase reaction [1]: permanent terminators | incorporation efficiency [2]: incorporation efficiency was lower than for 2′-F,Me-UTP and 3′-F-dTTP | termination of the polymerase reaction [2]: no evidence of further incorporation

Cc1cn([C@H]2C=C[C@@H](COP(=O)(O)OP(=O)(O)OP(=O)(O)O)O2)c(=O)[nH]c1=O [Sta-TP, Stavudine 5′-triphosphate]
termination of the polymerase reaction (summary of the 11 tested) [3]: complete termination of the polymerase reaction | incorporation efficiency [2]: very efficiently incorporated | termination of the polymerase reaction [2]: complete termination of the polymerase reaction | termination of the polymerase reaction at 10-fold lower concentration [2]: resulted in termination of the polymerase reaction

COC(=O)N[C@H](C(=O)N1CCC[C@H]1c1nc2cc([C@H]3CC[C@H](c4cc5nc([C@@H]6CCCN6C(=O)[C@@H](NC(=O)OC)[C@@H](C)OC)[nH]c5cc4F)N3c3cc(F)c(N4CCC(c5ccc(F)cc5)CC4)c(F)c3)c(F)cc2[nH]1)[C@@H](C)OC [Pibrentasvir]
inhibition of exonuclease activity ([4]; 0.1 µM inhibitor, 30 nM nsp14/nsp10, 37° C., 15 min): shows inhibition of the exonuclease activity | inhibition of exonuclease activity [4, 6]: significantly increased inhibition of exonuclease activity | inhibition of exonuclease activity [4, 7]: able to inhibit the exonuclease

Cc1cn([C@H]2C[C@H](F)[C@@H](COP(=O)(O)OP(=O)(O)OP(=O)(O)O)O2)c(=O)[nH]c1=O [3′-F-dTTP, 3′-fluoro-3′-deoxythymidine triphosphate]
termination of the polymerase reaction [1]: permanent terminators | incorporation efficiency [2]: efficient substrates of the RdRp | termination of the polymerase reaction [2]: no further incorporation

Nc1nc(O)c2ncn(COC(CO)COP(=O)(O)OP(=O)(O)OP(=O)(O)O)c2n1 (centres unmarked) [Gan-TP, Ganciclovir 5′-triphosphate]
termination of the polymerase reaction (summary of the 11 tested) [3]: complete termination of the polymerase reaction | termination of the polymerase reaction [1]: terminate the polymerase reaction | termination of the polymerase reaction [2]: complete termination; also recorded: better terminators than Ent-TP

biotin-16-aminoallyl-2′-deoxyuridine-5′-triphosphate [Biotin-dUTP]
termination of the polymerase reaction (summary of the 11 tested) [3]: complete termination of the polymerase reaction | relative incorporation efficiency in equimolar combinations [2]: lower incorporation efficiency than the natural UTP | termination of the polymerase reaction [2]: terminator of the polymerase reaction

Cidofovir diphosphate [Cid-DP]
termination of the polymerase reaction (summary of the 11 tested) [3]: incomplete or delayed termination | termination of the polymerase reaction [1]: terminate the polymerase reaction | termination of the polymerase reaction [2]: delayed termination | termination of the polymerase reaction at 10-fold lower concentration [2]: resulted in termination of the polymerase reaction

CO[C@H]1[C@@H](O)[C@H](n2ccc(=O)[nH]c2=O)O[C@@H]1COP(=O)(O)OP(=O)(O)OP(=O)(O)O [3′-OMe-UTP, 3′-0-methyluridine-5′-triphosphate]
termination of the polymerase reaction (summary of the 11 tested) [3]: complete termination of the polymerase reaction | incorporation efficiency [1]: lower incorporation efficiency | termination of the polymerase reaction [1]: obligate terminator

O=c1ccn([C@@H]2O[C@H](COP(=O)(O)OP(=O)(O)OP(=O)(O)O)[C@@H](O)[C@H]2F)c(=O)[nH]1 [2′-F-dUTP, 2′-fluoro-2′-deoxyuridine-5′-triphosphate]
termination of the polymerase reaction (summary of the 11 tested) [3]: did not terminate the polymerase reaction | incorporation efficiency [1]: incorporated very efficiently | relative incorporation efficiency in equimolar combinations [2]: incorporated far better than 2′-O-Me-UTP and dUTP | termination of the polymerase reaction in equimolar combinations [2]: not terminators of the polymerase reaction

N[C@@H]1[C@H](O)[C@@H](COP(=O)(O)OP(=O)(O)OP(=O)(O)O)O[C@H]1n1ccc(=O)[nH]c1=O [2′-NH2-dUTP, 2′-amino-2′-deoxyuridine-5′-triphosphate]
termination of the polymerase reaction (summary of the 11 tested) [3]: did not terminate the polymerase reaction | relative incorporation efficiency in equimolar combinations [2]: more efficiently incorporated than 2′-O-Me-UTP and dUTP | termination of the polymerase reaction in equimolar combinations [2]: not terminators of the polymerase reaction

COC(=O)N[C@H](C(=O)N1CCC[C@H]1C(=O)Nc1ccc([C@@H]2CC[C@@H](c3ccc(NC(=O)[C@@H]4CCCN4C(=O)[C@@H](NC(=O)OC)C(C)C)cc3)N2c2ccc(C(C)(C)C)cc2)cc1)C(C)C [Ombitasvir]
inhibition of exonuclease activity ([4]; 1 µM inhibitor, 30 nM nsp14/nsp10, 37° C., 15 min): shows inhibition of the exonuclease activity | inhibition of exonuclease activity [4, 6]: significantly increased inhibition of exonuclease activity | inhibition of exonuclease activity [4, 7]: able to inhibit the exonuclease

CC(Cn1cnc2c(N)ncnc21)OCP(=O)(O)OP(=O)(O)OP(=O)(O)O (stereo in doubt) [TFV-DP, Tenofovir diphosphate]
termination of the polymerase reaction [2]: obligate terminator for the RdRp

Cc1cccc(C)c1OCC(=O)N[C@@H](Cc1ccccc1)[C@@H](O)C[C@H](Cc1ccccc1)NC(=O)[C@H](C(C)C)N1CCCNC1=O [Lopinavir]
inhibition of exonuclease activity [4, 6]: small inhibition of the exonuclease activity | inhibition of exonuclease activity [4, 8]: fragmentation peaks are further reduced | inhibition of exonuclease activity [4, 9]: fragmentation peaks are further reduced | inhibition of exonuclease activity [4, 10]: complete inhibition of exonuclease activity

COC(=O)N[C@H](C(=O)N1CC2(CC2)C[C@H]1c1nc(-c2ccc3c(c2)C(F)(F)c2cc(-c4ccc5[nH]c([C@@H]6[C@H]7CC[C@H](C7)N6C(=O)[C@@H](NC(=O)OC)C(C)C)nc5c4)ccc2-3)c[nH]1)C(C)C [Ledipasvir]
inhibition of exonuclease activity [4, 7]: able to inhibit the exonuclease

O=c1ccn([C@@H]2O[C@H](COP(=O)(O)OP(=O)(O)OP(=O)(O)O)[C@@H](O)[C@H]2O)c(=O)[nH]1 [UTP]
termination of the polymerase reaction [1]: primer extension by 2 UTPs occurred

Nc1ccn([C@@H]2CS[C@H](COP(=O)(O)OP(=O)(O)OP(=O)(O)O)O2)c(=O)n1 [Lam-TP, Lamivudine triphosphate]
incorporation efficiency [2]: relatively poor incorporation

CO[C@@H]1[C@H](O)[C@@H](COP(=O)(O)OP(=O)(O)OP(=O)(O)O)O[C@H]1n1ccc(=O)[nH]c1=O [2′-OMe-UTP, 2′-O-methyluridine-5′-triphosphate]
termination of the polymerase reaction (summary of the 11 tested) [3]: incomplete or delayed termination | termination of the polymerase reaction [1]: significant polymerase reaction termination | termination of the polymerase reaction [2]: significant termination after the first incorporation step

O=c1ccn([C@H]2C[C@H](O)[C@@H](COP(=O)(O)OP(=O)(O)OP(=O)(O)O)O2)c(=O)[nH]1 [dUTP]
relative incorporation efficiency in equimolar combinations ([2]; 250 µM each nucleotide, equimolar combinations (FIG. 36)): lower incorporation efficiency than the natural UTP

CC(C)c1nc(CN(C)C(=O)N[C@H](C(=O)N[C@@H](Cc2ccccc2)C[C@H](O)[C@H](Cc2ccccc2)NC(=O)OCc2cncs2)C(C)C)cs1 [Ritonavir]
inhibition of exonuclease activity [4, 6]: shows inhibition of the exonuclease activity | inhibition of exonuclease activity [4, 8]: fragmentation peaks are further reduced | inhibition of exonuclease activity [4, 9]: fragmentation peaks are further reduced | inhibition of exonuclease activity [4, 10]: complete inhibition of exonuclease activity

Nc1nc(=O)n([C@@H]2CS[C@H](COP(=O)(O)OP(=O)(O)OP(=O)(O)O)O2)cc1F [Ec-TP, Emtricitabine triphosphate]
incorporation efficiency [2]: relatively poor incorporation

N#C[C@@]1(c2ccc3c(N)ncnn23)O[C@H](COP(=O)(O)OP(=O)(O)OP(=O)(O)O)[C@@H](O)[C@H]1O [RDV-TP]
incorporation efficiency relative to the natural nucleotide [5]: higher incorporation efficiency than ATP

desthiobiotin-16-aminoallyl-uridine-5′-triphosphate [Desthio-UTP]
termination of the polymerase reaction (summary of the 11 tested) [3]: did not terminate the polymerase reaction | incorporation efficiency [2]: incorporated | termination of the polymerase reaction [2]: does not terminate the polymerase reaction

Cc1cn([C@H]2C[C@H](O)[C@@H](COP(=O)(O)OP(=O)(O)OP(=O)(O)O)O2)c(=O)[nH]c1=O [dTTP]
incorporation and block of further nucleotide incorporation (Therminator II): incorporation continued past the first A in the template | incorporation and block of further nucleotide incorporation (Therminator IX): incorporation continued past the first A in the template | incorporation and block of further nucleotide incorporation (Thermo Sequenase): incorporation continued past the first A in the template

COc1cc2c(cc1Cc1cccc(Cl)c1F)c(=O)c(C(=O)O)cn2[C@H](CO)C(C)C [Elvitegravir]
inhibition of exonuclease activity ([4]; concentration not stated for this compound (FIG. 59d)): able to inhibit the exonuclease

Sofosbuvir
extension of the RNA template-loop-primer ([2]; […], RDV-TP together with UTP): complete conversion
